Assay results taken from patent US9181234B2, “Antibacterial compounds” (priority 2010, dated 2015).
Values after ≈ are worked out from the molar mass of the structure shown.

Key:
[1] = physchem; details: kinetic from dmso stock
Method in brief: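 DMSO doubling dilutions were diluted twenty-fold into 100 mM citrate (pH 4), PBS (pH 7.4) or carbonate-bicarbonate (pH 9). After 24 h equilibration at room temperature, absorbance was read at 620 nm. The reported value is the highest concentration without measurable precipitate.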

[2] = tested on: Enterococcus faecalis (Isolate ID ATCC 29212); experiment: Antibacterial activity, MIC, E. faecalis; type: cell-based; details: Enterococcus faecalis, ATCC29212; Gram positive strain; broth microdilution or agar dilution
Method in brief: (§1)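 Readout is the MIC, established according to CLSI standard M7-A7 using either agar dilution or broth microdilution.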

[3] = tested on: Haemophilus influenzae (Isolate ID ATCC 49247); experiment: Antibacterial activity, MIC, H. influenzae; type: cell-based; details: Haemophilus influenzae, ATCC49247; Gram negative strain; broth microdilution or agar dilution
Method in brief: as §1

[4] = tested on: Staphylococcus aureus (Isolate ID ATCC 29213); experiment: Antibacterial activity, MIC, S. aureus; type: cell-based; details: Staphylococcus aureus, ATCC29213, Gram positive strain; broth microdilution or agar dilution
Method in brief: as §1

[5] = tested on: Streptococcus pyogenes (Isolate ID ATCC 51339); experiment: Antibacterial activity, MIC, S. pyogenes; type: cell-based; details: Streptococcus pyogenes, ATCC51339, Gram positive strain; broth microdilution or agar dilution
Method in brief: as §1

[6] = pH 7.4, aqueous buffer, Solubility (pH 7.4)
[7] = pH 7.4, aqueous buffer, Solubility Range
[8] = pH 7.4, aqueous buffer, Max Solubility
[9] = pH 7.4, aqueous buffer, Solubility Range (maximum solubility)
[10] = pH 9, aqueous buffer, Max Solubility
[11] = pH 9, aqueous buffer, Solubility Range (maximum solubility)

| SMILES | solubility at 24 h [1, 6] | solubility at 24 h [1, 7] | MIC [2] | MIC [3] | MIC [4] | MIC [5] | solubility at 24 h [1, 8] | solubility at 24 h [1, 9] | solubility at 24 h [1, 10] | solubility at 24 h [1, 11] |
| --- | --- | --- | --- | --- | --- | --- | --- | --- | --- | --- |
| C=CCC1(C(=O)O)CCN(c2ncc(-c3cc(-c4cnccn4)c4sc(NC(=O)NCC)nc4c3)cn2)CC1 [Compound 139, 4-allyl-1-[5-[2-(ethylcarbamoylamino)-7-pyrazin-2-yl-1,3-benzothiazol-5-yl]pyrimidin-2-yl]piperidine-4-carboxylic acid] | ≥ 800 µg/mL | > 800 µg/mL | ≤ 0.25 µg/mL | 1 to 16 µg/mL (≈ 1.84 to 29.4 µM) | ≤ 0.25 µg/mL | ≤ 0.25 µg/mL | – | – | – | – |
| CCNC(=O)Nc1nc2cc(-c3cnc(N4CCC(CC(F)(F)F)(C(=O)O)CC4)nc3)cc(-c3ccccn3)c2s1 [Compound 140] | ≥ 800 µg/mL | > 800 µg/mL | ≤ 0.25 µg/mL | 1 to 16 µg/mL (≈ 1.71 to 27.3 µM) | 0.25 to 1 µg/mL (≈ 0.427 to 1.71 µM) | ≤ 0.25 µg/mL | ≥ 800 µg/mL | > 800 µg/mL | – | – |
| CCNC(=O)Nc1nc2cc(-c3cnc(N4CCC(C(=O)O)(C(F)(F)F)CC4)nc3)cc(-c3ccccn3)c2s1 [Compound 142, 1-[5-[2-(ethylcarbamoylamino)-7-(2-pyridyl)-1,3-benzothiazol-5-yl]pyrimidin-2-yl]-4-(trifluoromethyl)piperidine-4-carboxylic acid] | ≥ 800 µg/mL | > 800 µg/mL | ≤ 0.25 µg/mL | 1 to 16 µg/mL (≈ 1.75 to 28 µM) | 1 to 16 µg/mL (≈ 1.75 to 28 µM) | ≤ 0.25 µg/mL | ≥ 800 µg/mL | > 800 µg/mL | – | – |
| CCNC(=O)Nc1nc2cc(-c3cnc(N4CCC(C)(C(=O)O)CC4)nc3)cc(C#Cc3cncn3C)c2s1 [Compound 144, 1-[5-[2-(ethylcarbamoylamino)-7-[2-(3-methylimidazol-4-yl)ethynyl]-1,3-benzothiazol-5-yl]pyrimidin-2-yl]-4-methyl-piperidine-4-carboxylic acid] | 400 µg/mL (≈ 734 µM) | 400 to 800 µg/mL (≈ 734 to 1470 µM) | ≤ 0.25 µg/mL | 0.25 to 1 µg/mL (≈ 0.459 to 1.84 µM) | 0.25 to 1 µg/mL (≈ 0.459 to 1.84 µM) | ≤ 0.25 µg/mL | – | – | – | – |
| CCNC(=O)Nc1nc2cc(-c3cnc(N4CCC(C)(C(=O)O)CC4)nc3)cc(C(=O)Nc3nccs3)c2s1 [Compound 145, 1-[5-[2-(ethylcarbamoylamino)-7-(thiazol-2-ylcarbamoyl)-1,3-benzothiazol-5-yl]pyrimidin-2-yl]-4-methyl-piperidine-4-carboxylic acid] | ≥ 800 µg/mL | > 800 µg/mL | 0.25 to 1 µg/mL (≈ 0.441 to 1.76 µM) | > 16 µg/mL | > 16 µg/mL | 1 to 16 µg/mL (≈ 1.76 to 28.2 µM) | – | – | – | – |
| CCNC(=O)Nc1nc2cc(-c3cnc(N4CCC(C)(C(=O)O)CC4)nc3)cc(C#CC3CCCC3)c2s1 [Compound 150] | ≥ 800 µg/mL | > 800 µg/mL | ≤ 0.25 µg/mL | > 16 µg/mL | 0.25 to 1 µg/mL (≈ 0.469 to 1.88 µM) | > 16 µg/mL | ≥ 800 µg/mL | > 800 µg/mL | – | – |

The next lines start with the values.

| solubility at 24 h [1, 6] | solubility at 24 h [1, 7] | MIC [2] | MIC [3] | MIC [4] | MIC [5] | solubility at 24 h [1, 8] | solubility at 24 h [1, 9] | solubility at 24 h [1, 10] | solubility at 24 h [1, 11] | SMILES |
| --- | --- | --- | --- | --- | --- | --- | --- | --- | --- | --- |
| 50 µg/mL (≈ 89 µM) | 12.5 to 400 µg/mL (≈ 22.3 to 712 µM) | > 16 µg/mL | > 16 µg/mL | > 16 µg/mL | > 16 µg/mL | – | – | – | – | CCNC(=O)Nc1nc2cc(-c3cnc(N4CCC(C)(C(=O)O)CC4)nc3)cc(NC(=O)c3ncccn3)c2s1 [Compound 146, 1-[5-[2-(ethylcarbamoylamino)-7-(pyrimidine-2-carbonylamino)-1,3-benzothiazol-5-yl]pyrimidin-2-yl]-4-methyl-piperidine-4-carboxylic acid] |
| ≥ 800 µg/mL | > 800 µg/mL | ≤ 0.25 µg/mL | 1 to 16 µg/mL (≈ 1.78 to 28.5 µM) | 1 to 16 µg/mL (≈ 1.78 to 28.5 µM) | 0.25 to 1 µg/mL (≈ 0.445 to 1.78 µM) | – | – | – | – | CCNC(=O)Nc1nc2cc(-c3cnc(N4CCC(C)(C(=O)O)CC4)nc3)cc(CN(C)c3ncccn3)c2s1 [Compound 147, 1-[5-[2-(ethylcarbamoylamino)-7-[[methyl(pyrimidin-2-yl)amino]methyl]-1,3-benzothiazol-5-yl]pyrimidin-2-yl]-4-methyl-piperidine-4-carboxylic acid] |
| ≥ 800 µg/mL | > 800 µg/mL | ≤ 0.25 µg/mL | 0.25 to 1 µg/mL (≈ 0.462 to 1.85 µM) | ≤ 0.25 µg/mL | ≤ 0.25 µg/mL | ≥ 800 µg/mL | > 800 µg/mL | – | – | CCNC(=O)Nc1nc2cc(-c3cnc(N4CCC(C)(C(=O)O)CC4)nc3)cc(C#Cc3cccnc3)c2s1 [Compound 148] |
| ≥ 800 µg/mL | > 800 µg/mL | ≤ 0.25 µg/mL | 1 to 16 µg/mL (≈ 1.78 to 28.5 µM) | 1 to 16 µg/mL (≈ 1.78 to 28.5 µM) | 0.25 to 1 µg/mL (≈ 0.446 to 1.78 µM) | ≥ 800 µg/mL | > 800 µg/mL | – | – | CCNC(=O)Nc1nc2cc(-c3cnc(N4CCC(C)(C(=O)O)CC4)nc3)cc(NC(=O)c3ccccn3)c2s1 [Compound 149, 1-(5-(2-(3-ethylureido)-7-(picolinamido)benzo[d]thiazol-5-yl)pyrimidin-2-yl)-4-methylpiperidine-4-carboxylic acid] |
| 400 µg/mL (≈ 739 µM) | 400 to 800 µg/mL (≈ 739 to 1480 µM) | ≤ 0.25 µg/mL | 1 to 16 µg/mL (≈ 1.85 to 29.5 µM) | 0.25 to 1 µg/mL (≈ 0.462 to 1.85 µM) | 0.25 to 1 µg/mL (≈ 0.462 to 1.85 µM) | – | – | ≥ 800 µg/mL | > 800 µg/mL | CCNC(=O)Nc1nc2cc(-c3cnc(N4CCC(C)(C(=O)O)CC4)nc3)cc(C#Cc3ccncc3)c2s1 [Compound 151] |
| 100 µg/mL (≈ 175 µM) | 12.5 to 400 µg/mL (≈ 21.9 to 700 µM) | ≤ 0.25 µg/mL | 1 to 16 µg/mL (≈ 1.75 to 28 µM) | ≤ 0.25 µg/mL | ≤ 0.25 µg/mL | – | – | ≥ 800 µg/mL | > 800 µg/mL | CCNC(=O)Nc1nc2cc(-c3cnc(N4CCC(C)(C(=O)O)CC4)nc3)cc(C#Cc3cccc(OC)n3)c2s1 [Compound 152, 1-[5-[2-(ethylcarbamoylamino)-7-[2-(6-methoxy-2-pyridyl)ethynyl]-1,3-benzothiazol-5-yl]pyrimidin-2-yl]-4-methyl-piperidine-4-carboxylic acid] |
